# From US7795287B2, “Therapeutic substituted hydantoins and related compounds” (Allergan, Inc., priority 2006, dated 2010)
# How the values were obtained:
# EP2 [1] = biological target: T1, EP2 (Homo sapiens, UniProt P43116); experiment: EP2 cAMP; type: cell-based
# Source text: (§1) U.S. patent application Ser. No. 11/553,143, filed on Oct. 26, 2006, incorporated by reference herein, describes the methods used to obtain the in vitro data in the table below.
# hDP = biological target: T2, hDP (Homo sapiens, UniProt Q13258); experiment: Other Receptors, hDP; type: cell-based
# T2 sequence (Q13258 1-359): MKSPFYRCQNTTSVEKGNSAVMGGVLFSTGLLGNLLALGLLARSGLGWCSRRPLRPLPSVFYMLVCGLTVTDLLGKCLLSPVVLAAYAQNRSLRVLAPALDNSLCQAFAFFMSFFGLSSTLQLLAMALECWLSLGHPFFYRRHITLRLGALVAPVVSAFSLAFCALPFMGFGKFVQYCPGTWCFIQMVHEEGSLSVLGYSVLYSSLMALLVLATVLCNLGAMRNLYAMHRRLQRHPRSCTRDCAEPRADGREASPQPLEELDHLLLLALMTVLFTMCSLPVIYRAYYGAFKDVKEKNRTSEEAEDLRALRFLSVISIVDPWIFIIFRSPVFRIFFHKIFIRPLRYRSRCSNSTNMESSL
# Source text: as §1
# hEP3A = biological target: T3, hEP3A (Homo sapiens, UniProt P43115); experiment: Other Receptors, hEP3A; type: cell-based
# T3 sequence (P43115 1-390): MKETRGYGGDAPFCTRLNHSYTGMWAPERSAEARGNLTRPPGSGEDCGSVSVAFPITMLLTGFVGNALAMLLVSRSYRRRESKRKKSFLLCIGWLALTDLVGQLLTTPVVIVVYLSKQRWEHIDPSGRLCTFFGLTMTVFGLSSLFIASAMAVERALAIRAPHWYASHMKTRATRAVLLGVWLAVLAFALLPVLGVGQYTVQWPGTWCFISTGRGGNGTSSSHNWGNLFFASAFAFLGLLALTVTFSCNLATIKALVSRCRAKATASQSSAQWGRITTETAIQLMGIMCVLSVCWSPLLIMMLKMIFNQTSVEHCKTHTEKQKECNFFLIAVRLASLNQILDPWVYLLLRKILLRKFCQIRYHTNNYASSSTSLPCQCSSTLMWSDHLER
# Source text: as §1
# EP4 = EP4 (Homo sapiens, UniProt P35408); experiment: EP4 binding (KI)
# Sequence of EP4 (P35408 whole entry): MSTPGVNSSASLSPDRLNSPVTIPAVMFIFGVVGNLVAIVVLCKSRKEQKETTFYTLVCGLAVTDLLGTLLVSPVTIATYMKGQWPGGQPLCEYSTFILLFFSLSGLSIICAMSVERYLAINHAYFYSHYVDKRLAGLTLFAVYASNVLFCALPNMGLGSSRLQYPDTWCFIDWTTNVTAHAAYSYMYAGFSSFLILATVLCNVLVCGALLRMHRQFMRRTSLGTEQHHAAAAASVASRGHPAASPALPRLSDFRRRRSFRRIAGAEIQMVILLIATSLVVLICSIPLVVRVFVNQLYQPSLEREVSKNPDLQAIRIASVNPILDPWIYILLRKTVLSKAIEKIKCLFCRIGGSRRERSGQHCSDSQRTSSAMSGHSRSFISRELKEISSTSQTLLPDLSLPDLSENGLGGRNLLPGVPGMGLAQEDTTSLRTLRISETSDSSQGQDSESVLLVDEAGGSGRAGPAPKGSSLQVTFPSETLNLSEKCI
# Source text: as §1
# EP2 [2] = biological target: T1, EP2; experiment: EP2 binding (Ki)
# Source text: as §1
# EP2 [3] = biological target: T1, EP2; experiment: EP2 flipr; type: cell-based
# Source text: as §1
# normotensive dogs = experiment: Ocular surface hyperemia in normotensive dogs; type: in vivo; conditions: 0.003%, once daily for 5 days, maximum at 26 h
# Protocol: U.S. Pat. No. 7,091,231 describes the methods used to carry out the tests reported below.
# Isopropyl 5-(3-(3-(4-(1-hydroxyhexyl)phenyl)-2,5-dioxoimidazolidin-4-yl)propyl)thiophene-2-carboxylate (31) was tested in normotensive dogs at 0.003%, dosing once daily for 5 days. The maximum intraocular pressure (IOP) decrease from baseline was 7.7 mmHg (45%) at 102 h; the maximum ocular surface hyperemia (OSH) score was 2.5 at 26 h.
# T1 sequence (P43116 whole entry): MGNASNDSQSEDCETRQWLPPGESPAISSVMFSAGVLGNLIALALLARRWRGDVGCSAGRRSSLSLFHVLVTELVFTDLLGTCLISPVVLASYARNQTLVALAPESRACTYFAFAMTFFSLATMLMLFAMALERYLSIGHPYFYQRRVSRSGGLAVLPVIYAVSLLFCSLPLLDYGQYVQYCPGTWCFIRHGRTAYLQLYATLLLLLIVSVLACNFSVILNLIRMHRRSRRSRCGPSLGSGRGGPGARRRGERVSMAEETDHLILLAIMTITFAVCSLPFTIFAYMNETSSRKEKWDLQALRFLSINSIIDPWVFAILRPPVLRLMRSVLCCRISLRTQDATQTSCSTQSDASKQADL
EC50 (EP2 [1]) [nM],EC50 (hDP) [nM],EC50 (hEP3A) [nM],Ki (EP4) [nM],Ki (EP2 [2]) [nM],EC50 (EP2 [3]) [nM],maximum ocular surface hyperemia (OSH) score (normotensive dogs),SMILES
0.2,–,–,–,–,–,–,CCCCCC(=O)c1ccc(N2C(=O)NC(=O)C2CCCc2ccc(C(=O)O)s2)cc1 (centres unmarked)
0.1,17400,10,> 10000,5,3.5,–,CCCCCC(O)c1ccc(N2C(=O)NC(=O)C2CCCc2ccc(C(=O)O)s2)cc1 (centres unmarked)
–,–,–,–,–,–,2.5,"CCCCCC(O)c1ccc(N2C(=O)NC(=O)C2CCCc2ccc(C(=O)OC(C)C)s2)cc1 (centres unmarked) [Compound 31, Isopropyl 5-(3-(3-(4-(1-hydroxyhexyl)phenyl)-2,5-dioxoimidazolidin-4-yl)propyl)thiophene-2-carboxylate]"
